Results: patent US8153625B2, “Nitrogen-containing heterocyclic compounds and medicinal use thereof” (Ono Pharmaceutical Co., Ltd., priority 2002, dated 2012)

Key:
CXCR4 = target: T1, CXCR4 (Homo sapiens, UniProt P61073); assay: Inhibition of binding of human 125I-SDF-1 to CEM cells; settings: 125I-SDF-1 binding to human T cell line CEM
T1 construct: a human T cell line known to express CXCR4 can be employed; endogenous in cells; host or cells: CEM (human T cell line), whole cells
Source text: Typically, as an assay for screening for a compound which inhibits the binding between SDF-1 and CXCR4, a system measuring the binding between an I-labeled SDF-1 and a human T cell line known to express CXCR4 can be employed. Since both of a macrophage (R5) HIV and RANTES, MIP- 1 a, MIP-1I3 bind to CCR5, a similar understanding is possible.
Inhibition of Human SDF-1 with CEM Cell
In a binding buffer solution (HEPES containing BSA), a human T cell line CEM cell was mixed with a test compound and ^125I-SDF-1 (NEN) and incubated for 60 minutes at […]. The reacted CEM cell was filtered rapidly through a GF/B membrane filter plate (Packard) to effect adsorption, followed by washing three times with PBS, drying and addition of Microscint+20 (Packard).

T1 sequence (P61073 whole entry): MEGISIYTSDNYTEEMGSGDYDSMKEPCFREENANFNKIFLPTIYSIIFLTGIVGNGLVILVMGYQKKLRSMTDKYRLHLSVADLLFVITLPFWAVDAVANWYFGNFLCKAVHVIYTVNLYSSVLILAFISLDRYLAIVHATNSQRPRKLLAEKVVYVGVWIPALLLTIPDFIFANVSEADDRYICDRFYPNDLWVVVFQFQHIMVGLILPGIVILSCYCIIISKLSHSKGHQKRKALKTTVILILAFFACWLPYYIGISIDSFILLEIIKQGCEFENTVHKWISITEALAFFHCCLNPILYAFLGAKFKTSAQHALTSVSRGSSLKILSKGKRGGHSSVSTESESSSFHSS

Row | IC50 (CXCR4) [µM] | melting point [°C] | Structure (SMILES)
1 | 0.2 | 100 to 102 | Cl.Cl.NCCNc1nccc(N2CCCCCC2)n1 [Example 1(41), 2-(2-aminoethylamino)-4-(perhydroazepin-1-yl)pyrimidine dihydrochloride]
2 | 0.15 | – | c1ccc(CN2CCC(Nc3nccc(N4CCCCCC4)n3)C2)cc1 (stereo not drawn) [Example 4, 2-(1-benzylpyrrolidin-3-ylamino)-4-(perhydroazepin-1-yl)pyrimidine]
